Test results: patent US20230348418A1, “ISOINDOLINONE COMPOUNDS” (Monte Rosa Therapeutics, Inc., priority 2021, published 2023)

Experiments:
[1] = test system: ABC-1; assay: viability of NSCLC cell line, high N-Myc (FIG. 2A); assay type: cell-based; details: ABC-1, high N-Myc; compared to low N-Myc EBC-1 and NCI-H2023
Protocol: GSPT1 was degraded by compound 10 after six hours of treatment in high N-Myc NCI-H1155 and ABC-1 cells with a DC50 of 3 nM and 22 nM, respectively (x-axys represents […]M concentration of compound 10; y-axis represents the viability in %).

[2] = molecular target: GSPT1 (Homo sapiens, UniProt P15170+Q96SW2); assay: Quantitative proteomics analysis in ABC1 cells; assay type: cell-based; details: 100 nM, 6 hr
Sequence of GSPT1 (P15170 whole entry, the tested form may be a part): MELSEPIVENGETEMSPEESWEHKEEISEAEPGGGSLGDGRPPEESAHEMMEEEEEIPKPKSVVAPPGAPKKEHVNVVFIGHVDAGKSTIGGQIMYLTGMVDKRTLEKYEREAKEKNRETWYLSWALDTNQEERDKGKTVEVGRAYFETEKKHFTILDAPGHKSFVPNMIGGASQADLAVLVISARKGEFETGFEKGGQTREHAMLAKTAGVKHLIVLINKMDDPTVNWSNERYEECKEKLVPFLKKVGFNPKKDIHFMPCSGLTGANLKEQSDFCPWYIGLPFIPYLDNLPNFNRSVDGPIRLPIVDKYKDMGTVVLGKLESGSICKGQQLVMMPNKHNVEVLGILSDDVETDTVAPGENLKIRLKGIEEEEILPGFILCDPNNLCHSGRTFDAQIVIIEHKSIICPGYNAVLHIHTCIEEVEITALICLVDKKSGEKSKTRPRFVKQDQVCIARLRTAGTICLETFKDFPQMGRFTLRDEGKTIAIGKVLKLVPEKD
Sequence of GSPT1 (Q96SW2 whole entry, the tested form may be a part): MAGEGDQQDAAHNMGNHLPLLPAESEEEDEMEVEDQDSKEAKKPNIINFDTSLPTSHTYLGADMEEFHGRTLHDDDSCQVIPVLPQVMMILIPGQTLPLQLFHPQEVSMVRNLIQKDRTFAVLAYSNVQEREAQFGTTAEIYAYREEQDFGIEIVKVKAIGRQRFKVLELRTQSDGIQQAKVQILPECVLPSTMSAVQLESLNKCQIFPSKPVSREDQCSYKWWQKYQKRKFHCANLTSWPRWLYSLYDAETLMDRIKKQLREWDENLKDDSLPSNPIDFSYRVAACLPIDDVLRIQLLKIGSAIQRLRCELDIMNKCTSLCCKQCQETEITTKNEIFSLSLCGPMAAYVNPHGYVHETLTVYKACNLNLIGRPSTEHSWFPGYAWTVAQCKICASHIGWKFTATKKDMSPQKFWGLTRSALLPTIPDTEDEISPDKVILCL
Sequence of GSPT1 (Q16531 2-1140 partner limits assumed): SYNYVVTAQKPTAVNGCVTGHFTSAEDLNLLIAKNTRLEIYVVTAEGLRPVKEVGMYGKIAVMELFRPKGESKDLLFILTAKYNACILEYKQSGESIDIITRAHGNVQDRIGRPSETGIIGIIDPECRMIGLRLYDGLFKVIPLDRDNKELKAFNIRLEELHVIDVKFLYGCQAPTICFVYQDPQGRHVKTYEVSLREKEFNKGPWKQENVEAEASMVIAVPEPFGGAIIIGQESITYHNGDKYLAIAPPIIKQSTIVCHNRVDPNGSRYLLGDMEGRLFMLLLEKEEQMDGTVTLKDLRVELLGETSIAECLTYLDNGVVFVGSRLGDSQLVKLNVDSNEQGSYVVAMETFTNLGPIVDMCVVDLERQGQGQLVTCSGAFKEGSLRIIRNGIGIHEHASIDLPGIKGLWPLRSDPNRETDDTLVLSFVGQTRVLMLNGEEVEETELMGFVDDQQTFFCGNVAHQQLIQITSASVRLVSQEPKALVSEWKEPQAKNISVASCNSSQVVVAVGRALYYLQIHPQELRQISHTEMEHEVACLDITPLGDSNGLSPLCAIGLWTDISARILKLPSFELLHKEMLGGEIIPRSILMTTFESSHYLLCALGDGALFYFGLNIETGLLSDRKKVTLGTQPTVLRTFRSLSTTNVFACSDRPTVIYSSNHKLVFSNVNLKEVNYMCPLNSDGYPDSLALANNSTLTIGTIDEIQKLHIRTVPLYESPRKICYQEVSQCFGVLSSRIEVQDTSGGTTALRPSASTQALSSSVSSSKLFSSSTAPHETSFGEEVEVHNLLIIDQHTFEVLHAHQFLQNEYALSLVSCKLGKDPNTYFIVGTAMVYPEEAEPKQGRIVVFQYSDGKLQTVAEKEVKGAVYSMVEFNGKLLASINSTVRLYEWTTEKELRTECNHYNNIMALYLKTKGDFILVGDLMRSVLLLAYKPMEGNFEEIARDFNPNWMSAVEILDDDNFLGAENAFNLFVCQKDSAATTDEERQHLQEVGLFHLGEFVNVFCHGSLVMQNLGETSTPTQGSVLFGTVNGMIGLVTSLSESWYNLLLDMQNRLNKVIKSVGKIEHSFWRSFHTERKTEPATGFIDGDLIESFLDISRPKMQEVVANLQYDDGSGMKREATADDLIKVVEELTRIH
Protocol: Quantitative Proteomics Analysis: ABC1 cells were treated with either DMSO (2 replicates) or compound 10 at 100 nM (2 replicates) for 6 hr. Proteins were extracted with the PreOmics iST-NHS lysis buffer (#P.O.00030). The samples were then processed using the PreOmics kit following their recommended protocol with minor modifications. In brief, the proteins were reduced, alkylated and digested for 2 h at 37° C. The peptides were then labelled with TMT reagent (1:4; peptide:TMT label) (Thermo Fisher Scientific). After quenching, the peptides were purified, and the 16 samples were combined to a 1:1 ratio. […] Eluted TMT peptides were analyzed on an Orbitrap Eclipse mass spectrometer (Thermo Fisher Scientific). […] Precursors were fragmented by CID at a normalized collision energy (NCE) of 35% and analyzed in the ion trap. Following MS2, synchronous precursor selection (SPS) MS3 scans were collected by using high energy collision-induced dissociation (HCD) and fragments were analyzed using the Orbitrap (NCE 55%, AGC target 1×10^5, maximum injection time 120 ms, resolution 60,000). Protein identification and quantification were performed using Proteome Discoverer 2.4.0.305 with the SEQUEST algorithm and Uniprot human database (2021-01-29, 20614 protein sequences). […] Protein relative quantification was performed using an in-house developed java notebook. […]

Cc1ccc(NC(=O)OCc2ccc3c(c2)C(=O)N(C2CCC(=O)NC2=O)C3)cc1Cl (centres unmarked) [Compound 10]
sensitivity to treatment (viability in %) [1]: highly sensitive
Protein downregulation in mass spectrometry-based proteomics (FIG. 1B) [2]: GSPT1 was the most statistically significant downregulated protein
